Reference: patent publication US8916702B2 (priority 2012, dated 2014)
Read-outs that look alike come from different tables or passages of the source.

Tested on: HCV pseudoparticles (genotype 1a HCV E1 and E2 envelope, H77C isolate)
Assay: microbe, parasite or virus in culture
Type: cell-based
Conditions: Hepatitis C virus
[1] = Huh-7, read-out: Activity (EC50 class), HCV pseudoparticles (genotype 1a, H77C) in Huh7 cells, EC50 expressed as class A/B
[2] = Huh-7, 48 h, HCV pseudoparticles, Huh7 cells, luciferase 2 days after infection, average of duplicates
[3] = Huh-7, 48 h, read-out: Activity (EC50 class), HCV pseudoparticles, Huh7 cells, luciferase 2 days after infection, average of duplicates
[4] = Huh-7, 48 h, read-out: Activity (EC50 class), HCV pseudoparticle infection of Huh7 cells, luciferase 2 days after infection, EC50 expressed as class A/B
[5] = Huh-7, 48 h, HCV pseudoparticle infection of Huh7 cells, luciferase 2 days after infection, average of duplicates
[6] = Huh-7, 48 h, HCV pseudoparticles (genotype 1a, H77C) in Huh7 cells, average of duplicate, luciferase 2 days after infection

Structure (SMILES)	EC50 [1]	EC50 [4]	also measured
O=C(NCCCN(CCO)C(=O)C(=O)N1CCCCC1)c1ccc(Nc2nc(NC3(c4ccc(Cl)cc4)CC3)nc(OCC(F)(F)F)n2)cc1 [Compound 3509]	0.01 to 10 nM	–	–
CC(C)c1cccc(NC(=O)C(=O)NC[C@H](NC(=O)c2ccc(Nc3nc(NC4(c5ccc(Cl)cc5)CC4)nc(OCC(F)(F)F)n3)cc2)C(=O)O)c1 [Compound 3758]	–	–	EC50 [2]: 0.54 nM; EC50 [3]: 0.01 to 10 nM
O=C(NCC[C@H](NC(=O)c1ccc(Nc2nc(NC3(c4ccc(Cl)cc4)CC3)nc(OCC(F)(F)F)n2)cc1)C(=O)O)C(=O)NC1CCCCCC1 [Compound 1122]	–	0.01 to 10 nM	–
O=C(NCCc1c[nH]cn1)C(=O)NC[C@H](NC(=O)c1ccc(Nc2nc(NC3(c4ccc(Cl)cc4)CC3)nc(OCC(F)(F)F)n2)cc1)C(=O)O [Compound 1407]	–	0.01 to 10 nM	–
COC(=O)[C@H](CNC(=O)C(=O)Nc1ccc(C(C)C)cc1)NC(=O)c1ccc(Nc2nc(NC3(c4ccc(Cl)cc4)CC3)nc(OCC(F)(F)F)n2)cc1 [Compound 3212]	0.01 to 10 nM	–	–
CC(C)(CNC(=O)C(=O)NCc1ccccc1-c1ccccc1)CNC(=O)c1ccc(Nc2nc(NC3(c4ccc(Cl)cc4)CC3)nc(OCC(F)(F)F)n2)cc1 [Compound 3035]	0.01 to 10 nM	–	–
CC(C)(CNC(=O)C(=O)Nc1nccs1)CNC(=O)c1ccc(Nc2nc(NC3(c4ccc(Cl)cc4)CC3)nc(OCC(F)(F)F)n2)cc1 [Compound 1547]	–	0.01 to 10 nM	EC50 [5]: 0.06 nM
O=C(NC[C@H](NC(=O)c1ccc(Nc2nc(NC3(c4ccc(Cl)cc4)CC3)nc(OCC(F)(F)F)n2)cc1)C(=O)O)C(=O)Nc1cn[nH]c1 [Compound 1354]	–	0.01 to 10 nM	–
CC(C)(CNC(=O)C(=O)Nc1ccc2ncsc2c1)CNC(=O)c1ccc(Nc2nc(NC3(c4ccc(Cl)cc4)CC3)nc(OCC(F)(F)F)n2)cc1F [Compound 3566]	0.01 to 10 nM	–	–
Cc1ccc(NC(=O)C(=O)NCC(C)(C)CNC(=O)c2ccc(Nc3nc(NC4(c5ccc(Cl)cc5)CC4)nc(OCC(F)(F)F)n3)cc2)c(C)n1 [Compound 3073]	0.01 to 10 nM	–	–
COC(=O)[C@H](CCNC(=O)C(=O)Nc1ccc(-c2ncco2)cc1)NC(=O)c1ccc(Nc2nc(NC3(c4ccc(Cl)cc4)CC3)nc(OCC(F)(F)F)n2)cc1 [Compound 3326]	0.01 to 10 nM	–	–
CCOC(=O)[C@H](CNC(=O)C(N)=O)NC(=O)c1ccc(Nc2nc(NC3(c4ccc(Cl)cc4)CC3)nc(OCC(F)(F)F)n2)cc1 [Compound 1025, (S)-ethyl 3-(2-amino-2-oxoacetamido)-2-(4-(4-(1-(4-chlorophenyl)cyclopropylamino)-6-(2,2,2-trifluoroethoxy)-1,3,5-triazin-2-ylamino)benzamido)propanoate]	–	0.01 to 10 nM	EC50 [5]: 1.73 nM
COC(=O)[C@H](CCNC(=O)C(=O)Nc1cccc(-c2noc(C)n2)c1)NC(=O)c1ccc(Nc2nc(NC3(c4ccc(Cl)cc4)CC3)nc(OCC(F)(F)F)n2)cc1 [Compound 3606]	–	–	EC50 [3]: 0.01 to 10 nM
COc1ccc(CCNC(=O)C(=O)NC[C@H](NC(=O)c2ccc(Nc3nc(NC4(c5ccc(Cl)cc5)CC4)nc(OCC(F)(F)F)n3)cc2)C(=O)O)cc1 [Compound 1399]	–	0.01 to 10 nM	–
COC(=O)[C@H](CCNC(=O)C(=O)NC1CCCCCC1)NC(=O)c1ccc(Nc2nc(NC3(c4ccc(Cl)cc4)CC3)nc(OCC(F)(F)F)n2)cc1 [Compound 1141]	–	0.01 to 10 nM	–
COC(=O)[C@H](CNC(=O)C(=O)Nc1ccc(C(F)(F)F)nc1)NC(=O)c1ccc(Nc2nc(NC3(c4ccc(Cl)cc4)CC3)nc(OCC(F)(F)F)n2)cc1 [Compound 3716]	–	–	EC50 [2]: 0.62 nM; EC50 [3]: 0.01 to 10 nM
COC(=O)[C@H](CCNC(=O)C(=O)Nc1ccccc1OC)NC(=O)c1ccc(Nc2nc(NC3(c4ccc(Cl)cc4)CC3)nc(OCC(F)(F)F)n2)cc1 [Compound 1234]	–	0.01 to 10 nM	–
COC(=O)[C@H](CCNC(=O)C(=O)NCCc1c[nH]cn1)NC(=O)c1ccc(Nc2nc(NC3(c4ccc(Cl)cc4)CC3)nc(OCC(F)(F)F)n2)cc1 [Compound 1318]	–	0.01 to 10 nM	–
COC(=O)[C@H](CCNC(=O)C(=O)NC1CCC(S(C)(=O)=O)CC1)NC(=O)c1ccc(Nc2nc(NC3(c4ccc(Cl)cc4)CC3)nc(OCC(F)(F)F)n2)cc1 (some centres unmarked) [Compound 3119]	0.01 to 10 nM	–	–
COc1cc(NC(=O)C(=O)NCC(C)(C)CNC(=O)c2ccc(Nc3nc(NC4(c5ccc(Cl)cc5)CC4)nc(OCC(F)(F)F)n3)cc2)ccc1F [Compound 3069]	0.01 to 10 nM	–	–
COC(=O)[C@H](CCNC(=O)C(=O)Nc1ccc(-c2ccccc2)cc1)NC(=O)c1ccc(Nc2nc(NC3(c4ccc(Cl)cc4)CC3)nc(OCC(F)(F)F)n2)cc1 [Compound 1524]	–	0.01 to 10 nM	–
O=C(NCC[C@H](NC(=O)c1ccc(Nc2nc(NC3(c4ccc(Cl)cc4)CC3)nc(OCC(F)(F)F)n2)cc1)C(=O)O)C(=O)Nc1ccccn1 [Compound 1279]	–	0.01 to 10 nM	EC50 [5]: 1.29 nM
O=C(NC[C@H](NC(=O)c1ccc(Nc2nc(NC3(c4ccc(Cl)cc4)CC3)nc(OCC(F)(F)F)n2)cc1)C(=O)O)C(=O)Nc1ccc(Oc2cccnc2)cc1 [Compound 3290]	0.01 to 10 nM	–	–

Structure (SMILES)	EC50 [1]	EC50 [4]	also measured
CC(CNC(=O)C(=O)N1CCCCC1)CNC(=O)c1ccc(Nc2nc(NC3(c4ccc(Cl)cc4)CC3)nc(OCC(F)(F)F)n2)cc1 (centres unmarked) [Compound 3475]	0.01 to 10 nM	–	–
O=C(NC/C(=N/C(=O)c1ccc(Nc2nc(NC3(c4ccc(Cl)cc4)CC3)nc(OCC(F)(F)F)n2)cc1)C(=O)O)C(=O)Nc1ccc(-c2ccccc2)cc1 [Compound 3151]	0.01 to 10 nM	–	–
COC(=O)[C@H](CCNC(=O)C(=O)Nc1ccc(N(C)c2nc(C)cc(C)n2)cc1)NC(=O)c1ccc(Nc2nc(NC3(c4ccc(Cl)cc4)CC3)nc(OCC(F)(F)F)n2)cc1 [Compound 3133]	0.01 to 10 nM	–	–
COC(=O)[C@H](CCNC(=O)C(=O)NCCc1cccc(F)c1)NC(=O)c1ccc(Nc2nc(NC3(c4ccc(Cl)cc4)CC3)nc(OCC(F)(F)F)n2)cc1 [Compound 1312]	–	0.01 to 10 nM	–
Cc1cc(NC(=O)C(=O)NCC(C)(C)CNC(=O)c2ccc(Nc3nc(NC4(c5ccc(Cl)cc5)CC4)nc(OCC(F)(F)F)n3)cc2)sn1 [Compound 3010]	0.01 to 10 nM	–	EC50 [6]: 0.014 nM
CC(C)(CNC(=O)C(=O)Nc1cccnc1-c1ccccc1)CNC(=O)c1ccc(Nc2nc(NC3(c4ccc(Cl)cc4)CC3)nc(OCC(F)(F)F)n2)cc1 [Compound 3258]	0.01 to 10 nM	–	–
CC(C)(CNC(=O)C(=O)Nc1ccc(-n2cccn2)cc1)CNC(=O)c1ccc(Nc2nc(NC3(c4ccc(Cl)cc4)CC3)nc(OCC(F)(F)F)n2)cc1 [Compound 3795]	–	–	EC50 [3]: 0.01 to 10 nM
COC(=O)[C@H](CCNC(=O)C(=O)Nc1ccc(N2CCC(C(C)=O)CC2)cc1)NC(=O)c1ccc(Nc2nc(NC3(c4ccc(Cl)cc4)CC3)nc(OCC(F)(F)F)n2)cc1 [Compound 3303]	0.01 to 10 nM	–	EC50 [6]: 5.59 nM
O=C(NCC[C@H](NC(=O)c1ccc(Nc2nc(NC3(c4ccc(Cl)cc4)CC3)nc(OCC(F)(F)F)n2)cc1)C(=O)O)C(=O)Nc1ccc(Cc2ccncc2)cc1 [Compound 3224]	0.01 to 10 nM	–	–
COC(=O)[C@@H](CCNC(=O)C(=O)Nc1ccc(-c2noc(C)n2)cc1)NC(=O)c1ccc(Nc2nc(NC3(c4ccc(Cl)cc4)CC3)nc(OCC(F)(F)F)n2)cc1 [Compound 1529]	–	0.01 to 10 nM	–
Cc1c(Cl)ccc2sc(NC(=O)C(=O)NCC(C)(C)CNC(=O)c3ccc(Nc4nc(NC5(c6ccc(Cl)cc6)CC5)nc(OCC(F)(F)F)n4)cc3)nc12 [Compound 3817]	–	–	EC50 [2]: 0.11 nM; EC50 [3]: 0.01 to 10 nM
CC(C)(CNC(=O)C(=O)Nc1cccc(C(=N)N)c1)CNC(=O)c1ccc(Nc2nc(NC3(c4ccc(Cl)cc4)CC3)nc(OCC(F)(F)F)n2)cc1 [Compound 3041]	0.01 to 10 nM	–	EC50 [6]: 0.068 nM
COC(=O)[C@H](CCNC(=O)C(=O)Nc1ccc(Cn2ccnc2C)cc1)NC(=O)c1ccc(Nc2nc(NC3(c4ccc(Cl)cc4)CC3)nc(OCC(F)(F)F)n2)cc1 [Compound 3321]	10 to 1000 nM	–	–
COC(=O)[C@H](CCNC(=O)C(=O)Nc1ccc(Cn2ccnc2)cc1)NC(=O)c1ccc(Nc2nc(NC3(c4ccc(Cl)cc4)CC3)nc(OCC(F)(F)F)n2)cc1 [Compound 3319]	0.01 to 10 nM	–	–
O=C(NCC[C@H](NC(=O)c1ccc(Nc2nc(NC3(c4ccc(Cl)cc4)CC3)nc(OCC(F)(F)F)n2)cc1)C(=O)O)C(=O)Nc1ccc(C(O)N2CCOCC2)cc1 (some centres unmarked) [Compound 3229]	10 to 1000 nM	–	–
COC(=O)[C@H](CCNC(=O)C(=O)NCC1CC1c1cc(F)ccc1F)NC(=O)c1ccc(Nc2nc(NC3(c4ccc(Cl)cc4)CC3)nc(OCC(F)(F)F)n2)cc1 (some centres unmarked) [Compound 1373]	–	0.01 to 10 nM	–
COC(=O)[C@H](CCNC(=O)C(=O)Nc1ccc(CN2CCCCC2)cc1)NC(=O)c1ccc(Nc2nc(NC3(c4ccc(Cl)cc4)CC3)nc(OCC(F)(F)F)n2)cc1 [Compound 3313]	0.01 to 10 nM	–	–
Cn1cc(NC(=O)C(=O)NC[C@H](NC(=O)c2ccc(Nc3nc(NC4(c5ccc(Cl)cc5)CC4)nc(OCC(F)(F)F)n3)cc2)C(=O)O)cn1 [Compound 1356]	–	0.01 to 10 nM	–
O=C(NCCCCNC(=O)c1ccc(Nc2nc(NC3(c4ccc(Cl)cc4)CC3)nc(OCC(F)(F)F)n2)cc1)C(=O)Nc1cc(F)cc(F)c1 [Compound 3396]	0.01 to 10 nM	–	–
O=C1CC(NC(=O)C(=O)NC[C@H](NC(=O)c2ccc(Nc3nc(NC4(c5ccc(Cl)cc5)CC4)nc(OCC(F)(F)F)n3)cc2)C(=O)O)CCN1 (some centres unmarked) [Compound 1082]	–	0.01 to 10 nM	–
C[C@]12C3C1[C@H]3C[C@@H]2NC(=O)C(=O)NCC[C@H](NC(=O)c1ccc(Nc2nc(NC3(c4ccc(Cl)cc4)CC3)nc(OCC(F)(F)F)n2)cc1)C(=O)O (some centres unmarked) [Compound 1117]	–	0.01 to 10 nM	–
COC(=O)[C@H](CCNC(=O)C(=O)Nc1ccc(C(=O)N2CCOCC2)cc1)NC(=O)c1ccc(Nc2nc(NC3(c4ccc(Cl)cc4)CC3)nc(OCC(F)(F)F)n2)cc1 [Compound 3128]	0.01 to 10 nM	–	–
COC(=O)[C@H](CCNC(=O)C(=O)NC1CC(C)CC(C)(C)C1)NC(=O)c1ccc(Nc2nc(NC3(c4ccc(Cl)cc4)CC3)nc(OCC(F)(F)F)n2)cc1 (some centres unmarked) [Compound 1107]	–	0.01 to 10 nM	EC50 [5]: 0.46 nM
